Measurements as given in patent US20180064821A1, “SITE SPECIFIC CURCUMIN-POLYMER MOLECULAR COMPLEXES AND METHODS OF TREATING COLON DISEASES AND INFLAMMATION” (priority 2016, published 2018).
Read-outs that look alike come from different tables or passages of the source.

Columns and labels:
[1] = system: HCT116 human colo-rectal cancer cells; experiment: MTT cell viability assay, HCT116; format: cell-based; conditions: 48 h incubation
Description: (§1) Following 48 h of incubation, 0.5 mg/ml MTT solution was added to each well, and the cells were incubated for further 4 h at 37° C. After 4 h, 150 μl of DMSO was added to each well and incubated for 1 h at 37° C. to dissolve the formazan crystals. The absorbance was then measured at 570 nm with a reference wavelength of 650 nm using UV-visible spectrophotometer. The results are represented in terms of percentage inhibition of cell proliferation compared to that of vehicle control. The cellular viability was assessed as a percentage of the control by using the following equation.

[2] = system: HT29 human colo-rectal cancer cells; experiment: MTT cell viability assay, HT29; format: cell-based; conditions: 48 h incubation
Description: as §1

[3] = Aqueous stability of curcumin complexes; format: physicochemical; conditions: 37° C.
Description: At different time intervals (0, 1, 2, 4, 6, 8, 12, 16, 20, 24 h), the samples were collected, centrifuged (20,000 g) and the supernatant was passed through […] filter.

[4] = system: HCT116 colo-rectal cancer cells; experiment: pH dependent cellular uptake by flow cytometry, HCT116; format: cell-based, human
Description: (§2) Briefly, 2×10^5 cells were seeded in 24 well-plates and allowed to adhere for 24 h. […] After 4 h, the cells were washed with PBS, trypsinized, fixed using 4% paraformaldehyde (PFA) and stored at 4° C. until further analysis using flow cytometer. […] Sample acquisition was performed using BD Biosciences FACS LSR Fortessa and data analyzed using FlowJo software (FlowJo LLC).

[5] = system: HT29 colo-rectal cancer cells; experiment: pH dependent cellular uptake by flow cytometry, HT29; format: cell-based, human
Description: as §2

What does the source list for COc1cc(/C=C/C(=O)CC(=O)/C=C/c2ccc(O)c(OC)c2)ccc1O [Curcumin, (1E,6E)-1,7-bis(4-hydroxy-3-methoxyphenyl)-1,6-heptadiene-3,5-dione]?
IC50 ([1]; listed as Unformulated curcumin at pH 7.0, read-out: IC50 (mean ± SD) In HCT116 Cells): > 80 µM; IC50 ([1]; listed as curcumin in DMSO, read-out: IC50 (mean ± SD) In HCT116 Cells): 18.4 ± 1.94 µM; IC50 ([2]; listed as Unformulated curcumin at pH 7.0, read-out: IC50 (mean ± SD) In HT29 Cells): > 80 µM; IC50 ([2]; Homo sapiens, HT-29, 48 h, read-out: IC50 (mean ± SD) In HT29 Cells): 41.8 ± 1.86 µM; initial curcumin present ([3]; SIF (pH 6.7-6.9) and pH 7.0 buffer with 10% methanol, 24 h): ~10%; initial curcumin present ([3]; aqueous buffers with 10% methanol, within 2 h): ~30%; Cellular uptake of curcumin, Mean fluorescence intensity ([4]; pH 5.5, 4 h): 2543 ± 72; Cellular uptake of curcumin, Mean fluorescence intensity ([4]; pH 7.0, 4 h): 3514 ± 975; Cellular uptake of curcumin, Mean fluorescence intensity ([5]; pH 5.5, 4 h): 2704 ± 221; Cellular uptake of curcumin, Mean fluorescence intensity ([5]; pH 7.0, 4 h): 2429 ± 247
